# Molecular target: T1, MerTK (Homo sapiens, UniProt Q12866)
# T1 construct: Seed HUVECs (10K cells/well) in EBM-2 complete media; host or cells: HUVEC (primary human umbilical vein endothelial cells)
# T1 sequence (Q12866 21-999): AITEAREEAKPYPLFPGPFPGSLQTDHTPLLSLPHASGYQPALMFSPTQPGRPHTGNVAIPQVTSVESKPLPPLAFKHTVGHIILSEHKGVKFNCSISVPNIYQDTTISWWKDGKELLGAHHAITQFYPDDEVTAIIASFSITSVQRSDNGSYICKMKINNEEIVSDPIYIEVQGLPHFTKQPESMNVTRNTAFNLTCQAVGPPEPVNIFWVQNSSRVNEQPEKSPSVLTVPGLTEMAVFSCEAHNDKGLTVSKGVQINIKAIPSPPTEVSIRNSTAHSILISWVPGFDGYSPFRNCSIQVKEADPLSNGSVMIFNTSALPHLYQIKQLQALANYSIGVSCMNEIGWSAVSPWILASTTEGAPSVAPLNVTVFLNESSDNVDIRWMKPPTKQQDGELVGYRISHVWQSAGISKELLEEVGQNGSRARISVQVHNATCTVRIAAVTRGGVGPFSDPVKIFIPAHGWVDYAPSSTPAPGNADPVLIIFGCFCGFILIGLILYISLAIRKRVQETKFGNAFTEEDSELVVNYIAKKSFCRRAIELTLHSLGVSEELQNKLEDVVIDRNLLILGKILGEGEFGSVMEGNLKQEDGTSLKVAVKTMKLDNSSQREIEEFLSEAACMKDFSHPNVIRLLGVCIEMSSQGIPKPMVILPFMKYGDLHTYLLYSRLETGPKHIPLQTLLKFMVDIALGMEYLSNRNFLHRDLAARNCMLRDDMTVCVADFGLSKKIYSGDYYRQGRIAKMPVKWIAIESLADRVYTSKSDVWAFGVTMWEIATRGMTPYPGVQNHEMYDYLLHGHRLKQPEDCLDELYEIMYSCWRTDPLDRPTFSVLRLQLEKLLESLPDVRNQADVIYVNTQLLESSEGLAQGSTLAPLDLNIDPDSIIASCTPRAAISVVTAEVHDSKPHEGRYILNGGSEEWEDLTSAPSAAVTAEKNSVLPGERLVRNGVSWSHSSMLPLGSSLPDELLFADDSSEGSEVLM
# Test: PAKT HTRF-HUVEC assay (pAkt Ser473 HTRF after anti-human MerTK-XL stimulation)
# Type: cell-based
# Details: HUVEC cells, 1 hour compound, stimulated with anti-human MerTK-XL 1 ug/mL for 10 minutes, read-out: inhibition of MerTK
# Procedure, shortened: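 HUVECs starved 3-4 h in basal medium, preincubated with compound 1 h at 37° C, then stimulated 10 min with cross-linked anti-human MerTK antibody (final 1 ug/mL). Lysates read for pAkt (Ser473) by HTRF; EC50 from curve fitting.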
row,SMILES,EC50
1,"CC(C)N1CCN(Cc2ccc3c(c2)c(=O)n([C@H]2CC[C@H](O)CC2)c2nc(NCC4CC4)ncc32)CC1 [Compound 30, trans-3-((Cyclopropylmethyl)amino)-5-(4-hydroxycyclohexyl)-8-((4-isopropylpiperazin-1-yl)methyl)pyrimido[4,5-c]isoquinolin-6(5H)-one]",18.3 nM
2,O=c1c2cc(CN3CCN4CCC3CC4)ccc2c2cnc(NCC3CC3)nc2n1[C@H]1CC[C@H](O)CC1 [Compound 179],115 nM
3,"O=c1c2cc(CN3CCC(N4CCCC4)CC3)ccc2c2cnc(NCC3CC3)nc2n1[C@H]1CC[C@H](O)CC1 [Compound 37, trans-3-((Cyclopropylmethyl)amino)-5-(4-hydroxycyclohexyl)-8-((4-(pyrrolidin-1-yl)piperidin-1-yl)methyl)pyrimido[4,5-c]isoquinolin-6(5H)-one]",53.8 nM
4,"CCCCNc1ncc2c3ccc(N4CCC(N5CCCC5)CC4)cc3c(=O)n(C3CCC(=O)CC3)c2n1 [Compound 72, 3-(Butylamino)-5-(4-oxocyclohexyl)-8-(4-(pyrrolidin-1-yl)piperidin-1-yl)pyrimido[4,5-c]isoquinolin-6(5H)-one]",220 nM
5,CC1(O)CCC(n2c(=O)c3cc(CN4CCOCC4)ccc3c3cnc(NCC4CC4)nc32)CC1 (stereo not shown) [Compound 156],116 nM
6,"CN1CCN(Cc2ccc3c(c2)c(=O)n([C@H]2CC[C@](C)(O)CC2)c2nc(NCCC4CC4)ncc32)CC1 [Compound 29, trans-3-((2-Cyclopropylethyl)amino)-5-(4-hydroxy-4-methylcyclohexyl)-8-((4-methylpiperazin-1-yl)methyl)pyrimido[4,5-c]isoquinolin-6(5H)-one]",6.2 nM
7,"O=c1c2cc(CN3CCC(c4ccncc4)CC3)ccc2c2cnc(NCC3CC3)nc2n1[C@H]1CC[C@H](O)CC1 [Compound 217, trans-3-((Cyclopropylmethyl)amino)-5-(4-hydroxycyclohexyl)-8-((4-(pyridin-4-yl)piperidin-1-yl)methyl)pyrimido[4,5-c]isoquinolin-6(5H)-one]",4.1 nM

# Reference: patent US11110082B2, “Tyrosine kinase inhibitors” (Rigel Pharmaceuticals, Inc., priority 2016, dated 2021)
